“Also recorded” adds a separate entry of the source. Where a name gives a salt, the structure may show the parent alone.
Each molecule was assayed on influx of neutrophils to the lung in LPS-challenged rats (assay: Rat LPS neutrophilia model). Details: intratracheal compound 15 min-24 hours before LPS aerosol (100 ug/ml, 15 min), lavage 4 hours later, in at least one of the range of conditions tested.
Type: in vivo
Method: Rat LPS Neutrophilia Model
The effect of compounds on the influx of neutrophils to the lung in LPS-challenged rats is evaluated as follows. The test compound is suspended in one of the following solutions: 0.5% tween 80/PBS, 0.5% tween 80/saline, 10% EtOH/saline (with pH adjusted to 2.0, or 8.0 with HCl, or unadjusted), Saline @ pH 2.0, 6.5 or 8.0, 0.5% Tragacanth, 1% DMSO/20% Encapsin/Saline, or acidified 5% Tragacanth. The suspension process may be aided by the use of a glass homogenizer. For intratracheal administration, the animals are anesthetized with inhaled isoflurane and placed in a supine position, the trachea is intubated with a steel gavage needle (1.5 inch, 22 gauge, small ball) or a Penn-Century Microsprayer Aerosolizer (model IA-1B) and 200 ul of dosing solution is delivered. The animals are visually monitored during the recovery process, which typically occurs within two minutes.
Rats treated with compound or vehicle (15 min-24 hours pretreatment) are exposed to an LPS aerosol (100 ug/ml) for 15 min. Four hours later the rats are euthanized with pentobarbital (100 mg/kg, i.p.) and the airways are lavaged with 5 washes of 5 ml of phosphate buffered saline. The harvested cells are stained (Diffquick) and counted to determine total and differential cell data. In a typical study, macrophages represent 40-70% of the total cells, and polymorphonuclear cells 30-60% of the total cells. Inhibition of neutrophil levels relative to no compound controls is calculated based on the differential counts.
The assay has varying conditions, such as concentration, pretreat time, form of the compound (crystalline, amorphous, salts, micronised), and a wet or dry application of the compound. The data is obtained as % inhibition using a particular concentration and pretreat time.

SMILES	inhibition of neutrophilia (neutrophil influx to the lung)
Cc1ccc(C(=O)Nc2ccc(F)cc2)cc1-c1nc(N(C)CCCN(C)C)nc2c1CNC(=O)N2c1c(F)cccc1F [Example 9, 3-{8-(2,6-difluorophenyl)-2-[[3-(dimethylamino)-propyl](methyl)amino]-7-oxo-5,6,7,8-tetrahydropyrimido[4,5-d]pyrimidin-4-yl}-N-(4-fluorophenyl)-4-methylbenzamide]	statistically nonsignificant inhibition of neutrophilia
Cc1ccc(C(=O)Nc2ccccc2)cc1-c1nc(NCCN(C)C)nc2c1CNC(=O)N2c1c(F)cccc1F [Example 137, 3-(8-(2,6-difluorophenyl)-2-{[2-(dimethylamino)ethyl]amino}-7-oxo-5,6,7,8-tetrahydropyrimido[4,5-d]pyrimidin-4-yl)-4-methyl-N-phenylbenzamide]	statistically significant inhibition of neutrophilia
CSc1ccc(NC(=O)c2ccc(C)c(-c3nc(NCCN(C)C)nc4c3CNC(=O)N4c3c(F)cccc3F)c2)cc1 [Example 127, 3-(8-(2,6-difluorophenyl)-2-{[2-(dimethylamino)ethyl]amino}-7-oxo-5,6,7,8-tetrahydropyrimido[4,5-d]pyrimidin-4-yl)-4-methyl-N-[4-(methylthio)phenyl]benzamide]	statistically significant inhibition of neutrophilia
Cc1ccc(C(=O)NCc2ccccc2)cc1-c1nc(N2CCN(C)CC2)nc2c1CNC(=O)N2c1c(F)cccc1F [Example 148, 3-[8-(2,6-difluorophenyl)-2-(4-methyl-1-piperazinyl)-7-oxo-5,6,7,8-tetrahydropyrimido[4,5-d]pyrimidin-4-yl]-4-methyl-N-(phenylmethyl)benzamide]	statistically nonsignificant inhibition of neutrophilia
CCc1ccc(C(=O)Nc2nccs2)cc1-c1nc(NCCN(C)C)nc2c1CNC(=O)N2c1c(F)cccc1F [Example 144, 3-(8-(2,6-difluorophenyl)-2-{[2-(dimethylamino)ethyl]amino}-7-oxo-5,6,7,8-tetrahydropyrimido[4,5-d]pyrimidin-4-yl)-4-ethyl-N-1,3-thiazol-2-ylbenzamide trifluoroacetate]	statistically significant inhibition of neutrophilia
Cc1ccc(C(=O)NC(C)C)cc1-c1nc(N2CCC(N3CCCCC3)CC2)nc2c1CNC(=O)N2c1c(F)cccc1F [Example 57, 3-[2-(1,4′-bipiperidin-1′-yl)-8-(2,6-difluorophenyl)-7-oxo-5,6,7,8-tetrahydropyrimido[4,5-d]pyrimidin-4-yl]-4-methyl-N-(1-methylethyl)benzamide]	statistically nonsignificant inhibition of neutrophilia
CCN(CC)CCCNc1nc(-c2cc(C(=O)Nc3ccc(F)cc3)ccc2C)c2c(n1)N(c1c(F)cccc1F)C(=O)NC2 [Example 43, 3-[2-{[3-(diethylamino)propyl]amino}-8-(2,6-difluorophenyl)-7-oxo-5,6,7,8-tetrahydropyrimido[4,5-d]pyrimidin-4-yl]-N-(4-fluorophenyl)-4-methylbenzamide]	inactive
CCN(CC)CCCNc1nc(-c2cc(C(=O)Nc3nccs3)ccc2C)c2c(n1)N(c1c(F)cccc1F)C(=O)NC2 [Example 120, 3-[2-{[3-(diethylamino)propyl]amino}-8-(2,6-difluorophenyl)-7-oxo-5,6,7,8-tetrahydropyrimido[4,5-d]pyrimidin-4-yl]-4-methyl-N-1,3-thiazol-2-ylbenzamide]	statistically significant inhibition of neutrophilia
Cc1ccc(C(=O)Nc2ccc(F)c(F)c2)cc1-c1nc(NCCN(C)C)nc2c1CNC(=O)N2c1c(F)cccc1F [Example 138, N-(3,4-difluorophenyl)-3-(8-(2,6-difluorophenyl)-2-{[2-(dimethylamino)-ethyl]amino}-7-oxo-5,6,7,8-tetrahydropyrimido[4,5-d]pyrimidin-4-yl)-4-methylbenzamide]	statistically significant inhibition of neutrophilia
Cc1ccc(C(=O)Nc2nccs2)cc1-c1nc(N(C)CCCN(C)C)nc2c1CNC(=O)N2c1c(F)cccc1F [Example 124, 3-{8-(2,6-difluorophenyl)-2-[[3-(dimethylamino)propyl](methyl)amino]-7-oxo-5,6,7,8-tetrahydropyrimido[4,5-d]pyrimidin-4-yl}-4-methyl-N-1,3-thiazol-2-ylbenzamide]	statistically nonsignificant inhibition of neutrophilia
Cc1ccc(C(=O)NC(C)C)cc1-c1nc(NC2CCN(Cc3ccccc3)CC2)nc2c1CNC(=O)N2c1c(F)cccc1F [Example 200, 3-(8-(2,6-difluorophenyl)-7-oxo-2-{[1-(phenylmethyl)-4-piperidinyl]amino}-5,6,7,8-tetrahydropyrimido[4,5-d]pyrimidin-4-yl)-4-methyl-N-(1-methylethyl)benzamide]	statistically significant inhibition of neutrophilia
CN(C)CCNc1nc(-c2cccc(C(=O)Nc3ccc(F)cc3)c2)c2c(n1)N(c1c(F)cccc1F)C(=O)NC2 [Example 93, 3-(8-(2,6-difluorophenyl)-2-{[2-(dimethylamino)ethyl]amino}-7-oxo-5,6,7,8-tetrahydropyrimido[4,5-d]pyrimidin-4-yl)-N-(4-fluorophenyl)benzamide]	statistically nonsignificant inhibition of neutrophilia
COc1ccc(NC(=O)c2ccc(C)c(-c3nc(NCCN(C)C)nc4c3CNC(=O)N4c3c(F)cccc3F)c2)cn1 [Example 140, 3-(8-(2,6-difluorophenyl)-2-{[2-(dimethylamino)ethyl]amino}-7-oxo-5,6,7,8-tetrahydropyrimido[4,5-d]pyrimidin-4-yl)-4-methyl-N-[6-(methyloxy)-3-pyridinyl]benzamide]	statistically significant inhibition of neutrophilia
Cc1ccc(C(=O)NC(C)C)cc1-c1nc(N2CCC(N3CCCC3)CC2)nc2c1CNC(=O)N2c1c(F)cccc1F [Example 60, 3-{8-(2,6-difluorophenyl)-7-oxo-2-[4-(1-pyrrolidinyl)-1-piperidinyl]-5,6,7,8-tetrahydropyrimido[4,5-d]pyrimidin-4-yl}-4-methyl-N-(1-methylethyl)benzamide]	statistically nonsignificant inhibition of neutrophilia; also recorded: inactive
CNC(=O)c1ccc(C)c(-c2nc(NCCCN(C)C)nc3c2CNC(=O)N3c2c(F)cccc2F)c1 [Example 166, 3-(8-(2,6-difluorophenyl)-2-{[3-(dimethylamino)propyl]amino}-7-oxo-5,6,7,8-tetrahydropyrimido[4,5-d]pyrimidin-4-yl)-N,4-dimethylbenzamide]	statistically nonsignificant inhibition of neutrophilia
CN(C)CCNc1nc(-c2cccc(C(=O)Nc3ccccc3)c2)c2c(n1)N(c1c(F)cccc1F)C(=O)NC2 [Example 91, 3-(8-(2,6-difluorophenyl)-2-{[2-(dimethylamino)ethyl]amino}-7-oxo-5,6,7,8-tetrahydropyrimido[4,5-d]pyrimidin-4-yl)-N-phenylbenzamide]	statistically significant inhibition of neutrophilia
